Experimental data reported in patent US9187424B1, “Aryl dihydropyridinones and piperidinone MGAT2 inhibitors” (Bristol-Myers Squibb Company, priority 2011, dated 2015).

Columns and labels:
Human MGAT-2 [1] = molecular target: T1, Human MGAT-2 (Homo sapiens (Human), UniProt Q3SYC2); test: MGAT SPA Assay; type: biochemical; conditions: membranes from Sf9 cells expressing recombinant human MGAT2; 2-monooleoylglycerol and [3H]-oleoyl-CoA;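 also: inhibition scaled between DMSO vehicle as full MGAT2 activity and membranes of uninfected Sf9 cells as blank, IC50 fitted by logistic curve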
T1 sequence (Q3SYC2 whole entry): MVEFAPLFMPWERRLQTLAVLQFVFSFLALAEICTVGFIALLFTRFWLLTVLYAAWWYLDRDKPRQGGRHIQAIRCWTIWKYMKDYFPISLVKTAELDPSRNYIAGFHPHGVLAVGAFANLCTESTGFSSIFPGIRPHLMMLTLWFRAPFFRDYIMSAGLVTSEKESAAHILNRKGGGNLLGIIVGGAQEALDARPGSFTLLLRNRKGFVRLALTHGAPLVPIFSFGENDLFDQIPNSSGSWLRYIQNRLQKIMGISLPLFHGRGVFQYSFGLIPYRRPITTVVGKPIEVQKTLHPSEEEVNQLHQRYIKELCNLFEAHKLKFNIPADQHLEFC

Human MGAT-2 [2] = molecular target: T1, Human MGAT-2; test: MGAT LCMS Assay (human MGAT-2); type: biochemical; conditions: human MGAT-2 membranes expressed in Sf9 cells; 2-oleoylglycerol and oleoyl-Coenzyme A; read-out: h-MGAT2 IC50 (nM) LCMS Assay;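 also: diolein product quantified by LC/MS with positive APCI, expressed as peak area ratio versus an internal standard, and this ratio used to derive IC50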

| SMILES | IC50 (Human MGAT-2 [1]) | IC50 (Human MGAT-2 [2]) |
| --- | --- | --- |
| Cc1ccc(C2=C(c3nn[nH]n3)C(=O)NC(c3ccc(Br)cc3)(C(F)(F)F)C2)cc1 (centres unmarked) [Example 112] | 1300 nM | 204 nM |
| COc1cccc(C2=C(C#N)C(=O)NC(c3ccc(OCCCC(F)(F)F)cc3)(C(F)(F)F)C2)c1 (centres unmarked) [Example 64] | 761 nM | 280 nM |
| Cc1ccc(C2=C(NC(=O)c3cc(OCc4ccccc4)no3)C(=O)NC(c3ccc(OCCCC(F)(F)F)cc3)(C(F)(F)F)C2)cc1 (centres unmarked) [Example 180] | 36 nM | 30 nM |
| Cc1ccc(C2=C(NC(=O)c3ccccc3C)C(=O)N[C@@](c3ccc(OCCCC(F)(F)F)cc3)(C(F)(F)F)C2)cc1 [Example 105, (S)-2-Methyl-N-(2-oxo-4-p-tolyl-6-(4-(4,4,4-trifluorobutoxyl)phenyl)-6-(trifluoromethyl)-1,2,5,6-tetrahydropyridin-3-yl)benzamide] | 672 nM | 24 nM |
| Cc1ccc(C2=C(NC(=O)c3nnc(C)o3)C(=O)NC(c3ccc(OCCCC(F)(F)F)cc3)(C(F)(F)F)C2)cc1 (centres unmarked) [Example 154] | 34 nM | 8 nM |
| COc1ccc(NC(=O)C2=C(c3ccc(C)cc3)CC(c3ccc(OCCCC(F)(F)F)cc3)(C(F)(F)F)NC2=O)cc1F (centres unmarked) [Example 84] | 115 nM | 2 nM |
| Cc1ccc(C2=C(C(=O)Nc3ccc(O)cc3)C(=O)NC(c3ccc(OCCCC(F)(F)F)cc3)(C(F)(F)F)C2)cc1 (centres unmarked) [Example 122] | 14 nM | 1 nM |
| COc1ccc(C(=O)NC2=C(c3ccc(C)cc3)C(F)(F)C(c3ccc(OCCCC(F)(F)F)cc3)(C(F)(F)F)NC2=O)cc1 (centres unmarked) [Example 163] | 1180 nM | 47 nM |
| O=C1NC(c2ccc(OCCCC(F)(F)F)cc2)(C(F)(F)F)CC(c2ccc(C(F)(F)F)cc2)=C1c1nn[nH]n1 (centres unmarked) [Example 98] | 154 nM | 69 nM |
| COc1ccc(C2=C[C@](c3ccc(OCCCC(F)(F)F)cc3)(C(F)(F)F)NC(=O)C2(F)C#N)cc1 (single isomer, unassigned) [Example 15-1, 3-Fluoro-4-(4-methoxyphenyl)-2-oxo-6-(4-(4,4,4-trifluorobutoxyl)phenyl)-6-(trifluoromethyl)-1,2,3,6-tetrahydropyridine-3-carbonitrile] | 3310 nM | 12 nM |
| N#CC1=C(c2ccc3ccccc3c2)CC(c2ccc(OCCCC(F)(F)F)cc2)(C(F)(F)F)NC1=O (centres unmarked) [Example 73] | 684 nM | 15 nM |
| O=C1NC(c2ccc(OCCCC(F)(F)F)cc2)(C(F)(F)F)CC(c2ccc(OC(F)F)cc2)=C1n1cnnn1 (centres unmarked) [Example 149] | 53 nM | 6 nM |
| COc1ccc(C2=C(n3cnnn3)C(=O)NC(c3ccc(OCCCC(F)(F)F)cc3)(C(F)(F)F)C2)cc1 (centres unmarked) [Example 143] | 156 nM | 4 nM |
| Cc1ccc(C2=C(C(=O)Nc3ccc(F)cc3)C(=O)NC(c3ccc(OCc4ccccc4)cc3)(C(F)(F)F)C2)cc1 (centres unmarked) [Example 54] | 258 nM | 20 nM |
| Cc1ccc(C2=C(c3nnc(C(F)(F)F)o3)C(=O)NC(c3ccc(OCCCC(F)(F)F)cc3)(C(F)(F)F)C2)cc1 (centres unmarked) [Example 10, 4-p-Tolyl-6-(4-(4,4,4-trifluorobutoxyl)phenyl)-6-(trifluoromethyl)-3-(5-(trifluoromethyl)-1,3,4-oxadiazol-2-yl)-5,6-dihydropyridin-2(1H)-one] | 2720 nM | 138 nM |
| O=C1NC(c2ccc(OCCCC(F)(F)F)cc2)(C(F)(F)F)CC(c2ccc(Cl)cc2)=C1c1nn[nH]n1 (centres unmarked) [Example 101] | 379 nM | 108 nM |
| COc1ccc(NC(=O)C2=C(c3ccc(C)cc3)CC(C)(C(=O)NCCCCc3ccccc3)NC2=O)cc1 (centres unmarked) [Example 178] | 47 nM | 78 nM |

| SMILES | IC50 (Human MGAT-2 [1]) | IC50 (Human MGAT-2 [2]) |
| --- | --- | --- |
| Cc1ccc(C2=C(C#N)C(=O)NC(c3ccc(OCC(F)(F)F)cc3)(C(F)(F)F)C2)cc1 (centres unmarked) [Example 89] | 731 nM | 20 nM |
| COc1ccc(C2=C(C#N)C(=O)NC(c3ccc(OCCCC(F)(F)F)cc3)(C(F)(F)F)C2)c(F)c1 (centres unmarked) [Example 81] | 55 nM | 4 nM |
| Cc1ccc(C2=C(C(=O)Nc3ccc(C(F)(F)F)cc3)C(=O)NC(c3ccc(OCCCC(F)(F)F)cc3)(C(F)(F)F)C2)cc1 (centres unmarked) [Example 86] | 201 nM | 1 nM |
| O=C1NC(c2ccc(OCCCC(F)(F)F)cc2)(C(F)(F)F)CC(c2ccc(OC(F)F)cc2)=C1c1nn[nH]n1 (centres unmarked) [Example 93] | 37 nM | 30 nM |
| Cc1ccc(C2=C(NC(=O)c3ccc(Cl)nn3)C(=O)NC(c3ccc(OCCCC(F)(F)F)cc3)(C(F)(F)F)C2)cc1 (centres unmarked) [Example 158] | 302 nM | 75 nM |
| Cc1ccc(C2=C(C(=O)Nc3ccc(F)cc3)C(=O)NC(c3ccc(Oc4ccccc4)cc3)(C(F)(F)F)C2)cc1 (centres unmarked) [Example 48] | 226 nM | 7 nM |
| Cc1ccc(C2=C([N+](=O)[O-])C(=O)NC(c3ccc(OCCCC(F)(F)F)cc3)(C(F)(F)F)C2)cc1 (centres unmarked) [Example 13, 3-Nitro-4-p-tolyl-6-(4-(4,4,4-trifluorobutoxyl)phenyl)-6-(trifluoromethyl)-5,6-dihydropyridin-2(1H)-one] | 3330 nM | 35 nM |
| Cc1ccc(C2=C(C(=O)Nc3ccc(F)cc3)C(=O)NC(c3ccc(Oc4ccccc4)cc3)(C(F)(F)F)C2)cc1 (centres unmarked) [Example 165] | 60 nM | 8 nM |
| COc1ccc(NC(=O)C2=C(c3ccc(C)cc3)CC(c3ccc(OCC(F)(F)F)cc3)(C(F)(F)F)NC2=O)cc1 (centres unmarked) [Example 88] | 28 nM | 5 nM |
| CCCCCCCCCCCCCCCCNC(=O)C1(C)CC(c2ccc(C)cc2)=C(C(=O)Nc2ccc(OC)cc2)C(=O)N1 (centres unmarked) [Example 173] | 43 nM | 63 nM |
| COc1ccc(C2=C(C#N)C(=O)NC(c3ccc(OCCCC(F)(F)F)cc3)(C(F)(F)F)C2)c(F)c1 (centres unmarked) [Example 91] | 916 nM | 2 nM |
| Cc1ccc(C2=C(NC(=O)c3cc(C)no3)C(=O)NC(c3ccc(OCCCC(F)(F)F)cc3)(C(F)(F)F)C2(F)F)cc1 (centres unmarked) [Example 150] | 11 nM | 3 nM |
| Cc1ccc(C2=C(C#N)C(=O)NC(c3ccc(OCCC4CCCC4)cc3)(C(F)(F)F)C2)cc1 (centres unmarked) [Example 36] | 396 nM | 57 nM |
| Cc1ccc(C2=C(C(=O)Nc3ccc(OC(F)(F)F)cc3)C(=O)NC(C)(c3ccc(OCCCC(F)(F)F)cc3)C2)cc1 (centres unmarked) [Example 11, 6-Methyl-2-oxo-4-p-tolyl-6-(4-(4,4,4-trifluorobutoxyl)phenyl)-N-(4-(trifluoromethoxy)-phenyl)-1,2,5,6-tetrahydropyridine-3-carboxamide] | 48 nM | 13 nM |
| O=C1NC(c2ccc(OCCCC(F)(F)F)cc2)(C(F)(F)F)CC(c2ccc(OC(F)F)cc2)=C1NC(=O)c1ccno1 (centres unmarked) [Example 167] | 8 nM | 2 nM |
| N#CC1=C(c2ccc3ccccc3c2)CC(c2ccc(OCCCC(F)(F)F)cc2)(C(F)(F)F)NC1=O (centres unmarked) [Example 146] | 397 nM | 25 nM |
| CCCCOc1ccc(C2(C(F)(F)F)CC(c3ccc(OC)cc3)=C(NC(=O)c3ccno3)C(=O)N2)cc1 (centres unmarked) [Example 172] | 16 nM | 3 nM |
